This test has as its target T1, ATM protein immunoprecipitated from HeLa cell nuclear extract (Homo sapiens, UniProt Q13315).
T1 construct: ATM protein was immunoprecipitated from HeLa cell nuclear extract; endogenous in cells; host or cells: HeLa cell nuclear extract (immunoprecipitated with rabbit polyclonal anti-ATM antiserum)
Briefly: In vitro ATM inhibition assay (phosphorylation of GSTp53N66 on serine 15, chemiluminescent detection). Also: tested normally from 100 µM down to 0.1 nM. It is filed as biochemical. The following applies: read-out: IC50 values (the concentration at which 50% of the enzyme activity is inhibited), ATM inhibition. As to the method:
In order to assess the inhibitory action of the compounds against ATM in vitro, the following assay was used to determine IC50 values. ATM protein was immunoprecipitated from HeLa cell nuclear extract using rabbit polyclonal anti-sera raised to the C-terminal ˜500 amino-acid residues of the human ATM protein. […] 10 μl of immunoprecipitated ATM in Buffer C (50 mM Hepes, pH 7.4, 6 mM MgCl2, 150 mM NaCl, 0.1 mM sodium orthovanadate, 4 mM MnCl2, 0.1 mM dithiothreitol, 10% glycerol) was added to 32.5 μl of buffer C containing 1 μg of the ATM substrate GSTp53N66 in a V-bottomed 96 well polypropylene plate. The GSTp53N66 substrate is the amino terminal 66 amino acid residues of human wild type p53 fused to glutathione S-transferase. […] Varying concentrations of inhibitor were then added. […] After 10 minutes of incubation at 37° C., the reactions were initiated by the addition of 5 μl of 500 μM Na-ATP. After 1 hour with shaking at 37° C., 150 μl of phosphate buffered saline (PBS) was added to the reaction and the plate centrifuged at 1500 rpm for 10 minutes. 5 μl of the reaction was then transferred to a 96 well opaque white plate containing 45 μl of PBS to allow the GSTp53N66 substrate to bind to the plate wells. The plate was covered and incubated at room temperature for 1 hour with shaking before discarding the contents. The plate wells were washed twice by the addition of PBS prior to the addition of 3% (w/v) bovine serum albumin (BSA) in PBS. The plate was incubated at room temperature for 1 hour with shaking before discarding the contents and washing twice with PBS. To the wells, 50 μl of a 1:10,000 dilution of primary phosphoserine-15 antibody (Cell Signaling Technology, #9284L) in 3% BSA/PBS was added to detect the phosphorylation event on the serine 15 residue of p53 elicited by the ATM kinase. […] The wells were then washed four times with PBS before the addition of chemiluminescence reagent (NEN Renaissance, NEL105). The plate was then shaken briefly, covered with a transparent plate seal and transferred to a TopCount NXT for chemiluminescent counting. Counts per second, following a one second counting time, were recorded for each reaction.
The enzyme activity for each compound is then calculated using the following equation:
[formula] Results In vitro ATM assays
Compounds were assayed for ATM inhibition activity using the method described above. […] These are determined over a range of different concentrations, normally from 100 μM down to 0.1 nM. Such IC50 values are used as comparative values to identify increased compound potencies.

T1 sequence (Q13315 whole entry): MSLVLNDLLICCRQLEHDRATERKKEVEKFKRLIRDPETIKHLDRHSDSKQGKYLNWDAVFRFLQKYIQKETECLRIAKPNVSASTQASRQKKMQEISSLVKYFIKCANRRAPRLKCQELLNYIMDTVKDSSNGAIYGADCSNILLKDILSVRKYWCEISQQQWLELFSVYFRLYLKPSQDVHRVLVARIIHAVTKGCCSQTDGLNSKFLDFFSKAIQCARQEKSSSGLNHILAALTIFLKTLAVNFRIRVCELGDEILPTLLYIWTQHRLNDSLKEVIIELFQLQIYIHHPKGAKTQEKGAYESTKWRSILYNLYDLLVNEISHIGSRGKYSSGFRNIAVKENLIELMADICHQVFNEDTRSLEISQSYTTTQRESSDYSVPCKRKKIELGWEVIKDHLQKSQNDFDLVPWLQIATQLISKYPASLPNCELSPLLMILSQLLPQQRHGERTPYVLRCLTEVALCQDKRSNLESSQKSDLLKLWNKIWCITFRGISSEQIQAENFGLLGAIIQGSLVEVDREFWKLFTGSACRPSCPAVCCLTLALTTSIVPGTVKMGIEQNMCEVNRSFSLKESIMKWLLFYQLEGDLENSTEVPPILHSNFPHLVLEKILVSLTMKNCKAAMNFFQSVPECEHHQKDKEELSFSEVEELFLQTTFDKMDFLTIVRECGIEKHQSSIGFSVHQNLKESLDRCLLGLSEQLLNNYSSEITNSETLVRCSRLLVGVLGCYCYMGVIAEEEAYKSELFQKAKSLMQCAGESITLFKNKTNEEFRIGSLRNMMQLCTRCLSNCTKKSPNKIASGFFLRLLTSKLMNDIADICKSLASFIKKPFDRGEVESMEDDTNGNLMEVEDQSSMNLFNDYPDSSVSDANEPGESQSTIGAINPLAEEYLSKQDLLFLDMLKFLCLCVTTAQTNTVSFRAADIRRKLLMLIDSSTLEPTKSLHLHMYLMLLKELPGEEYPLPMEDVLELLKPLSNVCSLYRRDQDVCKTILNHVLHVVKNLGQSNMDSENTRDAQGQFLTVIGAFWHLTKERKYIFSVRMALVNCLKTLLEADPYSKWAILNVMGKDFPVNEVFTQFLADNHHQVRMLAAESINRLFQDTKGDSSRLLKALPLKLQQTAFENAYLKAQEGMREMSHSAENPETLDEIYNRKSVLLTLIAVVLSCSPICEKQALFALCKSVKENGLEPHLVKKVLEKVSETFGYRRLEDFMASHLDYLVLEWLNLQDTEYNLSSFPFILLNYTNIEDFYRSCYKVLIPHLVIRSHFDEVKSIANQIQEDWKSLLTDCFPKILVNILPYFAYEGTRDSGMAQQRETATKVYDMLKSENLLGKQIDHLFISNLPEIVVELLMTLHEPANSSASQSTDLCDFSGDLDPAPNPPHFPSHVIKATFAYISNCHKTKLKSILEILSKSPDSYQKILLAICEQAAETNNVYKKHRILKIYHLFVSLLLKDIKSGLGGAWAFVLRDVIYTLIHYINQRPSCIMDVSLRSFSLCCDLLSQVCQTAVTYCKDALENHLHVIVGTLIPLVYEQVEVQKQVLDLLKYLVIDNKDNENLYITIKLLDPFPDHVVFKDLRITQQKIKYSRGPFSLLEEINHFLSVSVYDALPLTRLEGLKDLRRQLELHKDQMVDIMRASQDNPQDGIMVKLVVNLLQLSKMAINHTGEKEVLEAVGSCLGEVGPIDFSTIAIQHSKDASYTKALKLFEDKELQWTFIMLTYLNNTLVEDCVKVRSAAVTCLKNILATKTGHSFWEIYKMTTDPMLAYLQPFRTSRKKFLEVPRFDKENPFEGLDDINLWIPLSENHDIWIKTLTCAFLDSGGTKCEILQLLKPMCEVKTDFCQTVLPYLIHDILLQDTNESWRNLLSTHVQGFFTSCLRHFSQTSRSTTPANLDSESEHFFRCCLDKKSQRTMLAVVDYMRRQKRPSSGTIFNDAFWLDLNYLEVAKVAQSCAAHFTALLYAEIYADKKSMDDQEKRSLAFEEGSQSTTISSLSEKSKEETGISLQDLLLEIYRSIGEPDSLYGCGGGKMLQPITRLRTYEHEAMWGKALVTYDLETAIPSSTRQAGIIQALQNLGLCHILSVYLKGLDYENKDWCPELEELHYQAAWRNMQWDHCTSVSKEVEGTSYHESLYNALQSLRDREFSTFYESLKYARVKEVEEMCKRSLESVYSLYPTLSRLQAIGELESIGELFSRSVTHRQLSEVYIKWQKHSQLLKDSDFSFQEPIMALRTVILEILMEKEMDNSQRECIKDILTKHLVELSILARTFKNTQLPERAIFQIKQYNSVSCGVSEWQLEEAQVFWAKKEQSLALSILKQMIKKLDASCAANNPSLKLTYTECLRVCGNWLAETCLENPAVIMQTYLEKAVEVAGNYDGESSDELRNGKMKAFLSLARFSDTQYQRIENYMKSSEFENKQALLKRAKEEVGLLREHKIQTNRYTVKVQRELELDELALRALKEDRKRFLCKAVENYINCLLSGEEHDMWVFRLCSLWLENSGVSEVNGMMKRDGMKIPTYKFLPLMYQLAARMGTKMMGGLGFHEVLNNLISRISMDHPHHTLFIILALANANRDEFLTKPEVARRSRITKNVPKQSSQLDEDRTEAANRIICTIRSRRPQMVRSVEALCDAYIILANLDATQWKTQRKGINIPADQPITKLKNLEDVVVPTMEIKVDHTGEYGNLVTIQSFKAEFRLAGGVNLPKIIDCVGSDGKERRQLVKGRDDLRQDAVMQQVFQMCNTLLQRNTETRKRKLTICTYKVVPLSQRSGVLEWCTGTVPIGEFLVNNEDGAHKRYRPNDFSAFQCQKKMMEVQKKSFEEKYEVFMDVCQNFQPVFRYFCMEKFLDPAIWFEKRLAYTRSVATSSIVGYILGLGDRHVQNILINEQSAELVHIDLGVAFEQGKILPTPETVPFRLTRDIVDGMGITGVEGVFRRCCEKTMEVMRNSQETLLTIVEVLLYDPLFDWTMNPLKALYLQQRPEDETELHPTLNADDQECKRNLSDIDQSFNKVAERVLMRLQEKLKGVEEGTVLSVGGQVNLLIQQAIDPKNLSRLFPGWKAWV

Consider `CCCCNS(=O)(=O)c1ccc2c(c1)Cc1cccc(-c3cc(=O)cc(N4CCOCC4)o3)c1S2` [Compound 457], for which the IC50 was less than 200 nM.
The figure for `O=C(c1ccc2c(c1)Sc1cccc(-c3cc(=O)cc(N4CCOCC4)o3)c1S2)N1CCN(c2ccccn2)CC1` [Compound 8] is less than 200 nM.
The figure for `CC(=O)N1CCN(CCC(=O)Nc2ccc3c(c2)Cc2cccc(-c4cc(=O)cc(N5CCOCC5)o4)c2S3)CC1` [Compound 349] is less than 200 nM; for `CSCCNC(=O)COc1ccc2c(c1)Cc1cccc(-c3cc(=O)cc(N4CCOCC4)o3)c1S2` [Compound 500] it is less than 200 nM.
For the compound `O=c1cc(-c2cccc3c2Sc2ccccc2N3CCCN2CCN(c3ccncc3)CC2)oc(N2CCOCC2)c1` [Compound 291], the IC50 is less than 200 nM.
Then `Nc1ccc2c(c1)Sc1cccc(-c3cc(=O)cc(N4CCOCC4)o3)c1S2` [Compound 21, 2-(7-Amino-thianthren-1-yl)-6-morpholin-4-yl-pyran-4-one], with less than 200 nM; and `O=C(COc1ccc2c(c1)Cc1cccc(-c3cc(=O)cc(N4CCOCC4)o3)c1S2)NCC(F)(F)F` [Compound 496], with less than 200 nM; and `O=C(COc1ccc2c(c1)Sc1cccc(-c3cc(=O)cc(N4CCOCC4)o3)c1S2)NCc1ccncc1` [Compound 439], with less than 200 nM.
As to `CN1CCCN(CC(=O)Nc2ccc3c(c2)Sc2cccc(-c4cc(=O)cc(N5CCOCC5)o4)c2S3)CC1` [Compound 60], the IC50 was less than 200 nM.
Then `CC(C)NC(=O)CN1CCN(C(=O)c2ccc3c(c2)Sc2cccc(-c4cc(=O)cc(N5CCOCC5)o4)c2S3)CC1` [Compound 14], with less than 200 nM; and `O=c1cc(-c2cccc3c2Sc2ccc(OCCNCC(F)(F)F)cc2S3)oc(N2CCOCC2)c1` [Compound 379], with less than 200 nM; and `O=C(CCN1CCCC1)Nc1ccc2c(c1)Sc1cccc(-c3cc(=O)cc(N4CCOCC4)o3)c1S2` [Compound 98], with less than 200 nM.
Take `O=C1NCCN1CCNCCCN1c2ccccc2Sc2c(-c3cc(=O)cc(N4CCOCC4)o3)cccc21` [Compound 287]: the IC50 is less than 200 nM.
Regarding `O=C(COc1ccc2c(c1)Cc1cccc(-c3cc(=O)cc(N4CCOCC4)o3)c1S2)NC[C@@H]1CCCCC[C@@H]1O` [Compound 513], the IC50 was less than 200 nM.
The figure for `CC(=O)N1CCN(C(=O)c2ccc3c(c2)Sc2cccc(-c4cc(=O)cc(N5CCOCC5)o4)c2S3)CC1` [Compound 11] is less than 200 nM; for `O=C(CCNCCO)Nc1ccc2c(c1)Sc1cccc(-c3cc(=O)cc(N4CCOCC4)o3)c1S2` [Compound 96] it is less than 200 nM.
On to `COC(=O)CCCC(=O)Nc1ccc2c(c1)Sc1cccc(-c3cc(=O)cc(N4CCOCC4)o3)c1S2` [Compound 26], for which the IC50 is less than 200 nM.
Then `O=C(CN1CCN(c2ccccn2)CC1)Nc1ccc2c(c1)Cc1cccc(-c3cc(=O)cc(N4CCOCC4)o3)c1S2` [Compound 343], with less than 200 nM.
With `O=C(COc1ccc2c(c1)Cc1cccc(-c3cc(=O)cc(N4CCOCC4)o3)c1S2)NCC1CCCO1` (centres unmarked) [Compound 497], the IC50 was less than 200 nM.
Then `CCNCCCOc1ccc(-c2cc(=O)cc(N3CCOCC3)o2)c2c1Sc1ccccc1S2` [Compound 172], with less than 200 nM; and `CN1CCN(C(=O)c2ccc3c(c2)Sc2cccc(-c4cc(=O)cc(N5CCOCC5)o4)c2S3)CC1` [Compound 6], with less than 200 nM; and `O=C(CN1CCN(c2ccc(F)cc2)CC1)Nc1ccc2c(c1)Cc1cccc(-c3cc(=O)cc(N4CCOCC4)o3)c1S2` [Compound 344], with less than 200 nM.
Then `CCN(CC)CCCNCCCN1c2ccccc2Sc2c(-c3cc(=O)cc(N4CCOCC4)o3)cccc21` [Compound 277], with less than 200 nM; and `O=c1cc(-c2cccc3c2Sc2ccccc2N3CCCNN2CCCCCC2)oc(N2CCOCC2)c1` [Compound 261], with less than 200 nM.
Then `O=C(COc1ccc2c(c1)Cc1cccc(-c3cc(=O)cc(N4CCOCC4)o3)c1S2)N1CCCCCC1` [Compound 532], with less than 200 nM; and `CCCCNCCOc1ccc2c(c1)Sc1cccc(-c3cc(=O)cc(N4CCOCC4)o3)c1S2` [Compound 382], with less than 200 nM; and `O=C(COc1ccc2c(c1)Sc1cccc(-c3cc(=O)cc(N4CCOCC4)o3)c1S2)NC(CO)(CO)CO` [Compound 410], with less than 200 nM.
As to `O=c1cc(-c2cccc3c2Sc2ccccc2N3CCCNCC2CCCO2)oc(N2CCOCC2)c1` (centres unmarked) [Compound 240], the IC50 is less than 200 nM.
Consider `O=c1cc(-c2cccc3c2Sc2ccc(S(=O)(=O)N4CCCC(CO)C4)cc2C3)oc(N2CCOCC2)c1` (centres unmarked) [Compound 471], for which the IC50 is less than 200 nM.
The figure for `CN(C)CCN(C)CCC(=O)Nc1ccc2c(c1)Sc1cccc(-c3cc(=O)cc(N4CCOCC4)o3)c1S2` [Compound 112] is less than 200 nM.
The figure for `O=c1cc(-c2cccc3c2Sc2ccccc2N3CCCNC(CO)(CO)CO)oc(N2CCOCC2)c1` [Compound 322] is less than 200 nM; for `O=c1cc(-c2cccc3c2Sc2ccccc2N3CCCN2CCN(c3ccccn3)CC2)oc(N2CCOCC2)c1` [Compound 290] it is less than 200 nM.
On to `O=C(COc1ccc2c(c1)Sc1cccc(-c3cc(=O)cc(N4CCOCC4)o3)c1S2)NCCN1CCNC1=O` [Compound 441], for which the IC50 is less than 200 nM.
The figure for `O=c1cc(-c2cccc3c2Sc2ccccc2N3CCCNCc2ccccn2)oc(N2CCOCC2)c1` [Compound 266] is less than 200 nM; for `O=C(CNCCO)Nc1ccc2c(c1)Sc1cccc(-c3cc(=O)cc(N4CCOCC4)o3)c1S2` [Compound 57] it is less than 200 nM.
The figure for `CCOCCCNCCCN1c2ccccc2Sc2c(-c3cc(=O)cc(N4CCOCC4)o3)cccc21` [Compound 286] is less than 200 nM; for `O=C(CNCC1CCCO1)Nc1ccc2c(c1)Sc1cccc(-c3cc(=O)cc(N4CCOCC4)o3)c1S2` (centres unmarked) [Compound 68] it is less than 200 nM.
The figure for `O=C(CCN1CCN(CCO)CC1)Nc1ccc2c(c1)Sc1cccc(-c3cc(=O)cc(N4CCOCC4)o3)c1S2` [Compound 128] is less than 200 nM; for `COc1ccccc1C(=O)Nc1ccc2c(c1)Sc1cccc(-c3cc(=O)cc(N4CCOCC4)o3)c1S2` [Compound 31] it is less than 200 nM.
For the compound `CC(C)N(CCNCCCOc1ccc(-c2cc(=O)cc(N3CCOCC3)o2)c2c1Sc1ccccc1S2)C(C)C` [Compound 200], the IC50 was less than 200 nM.
Then `N#CCNC(=O)COc1ccc2c(c1)Sc1cccc(-c3cc(=O)cc(N4CCOCC4)o3)c1S2` [Compound 409], with less than 200 nM; and `O=C(CCN1CCCCCC1)Nc1ccc2c(c1)Sc1cccc(-c3cc(=O)cc(N4CCOCC4)o3)c1S2` [Compound 101], with less than 200 nM; and `O=c1cc(-c2cccc3c2Sc2ccccc2N3CCCNCCN2CCCC2)oc(N2CCOCC2)c1` [Compound 264], with less than 200 nM.
As to `CC(=O)N1CCN(CC(=O)Nc2ccc3c(c2)Sc2cccc(-c4cc(=O)cc(N5CCOCC5)o4)c2S3)CC1` [Compound 77], the IC50 is less than 200 nM.
The figure for `CN(C)CC(=O)Nc1ccc2c(c1)Sc1cccc(-c3cc(=O)cc(N4CCOCC4)o3)c1S2` [Compound 69] is less than 200 nM.
The figure for `Cc1ccc(N2CCN(CCCN3c4ccccc4Sc4c(-c5cc(=O)cc(N6CCOCC6)o5)cccc43)CC2)c(C)c1` [Compound 294] is less than 200 nM; for `CC1CN(CCCN2c3ccccc3Sc3c(-c4cc(=O)cc(N5CCOCC5)o4)cccc32)CC(C)O1` (centres unmarked) [Compound 257] it is less than 200 nM.
Consider `O=c1cc(-c2ccc(OCCN3CCCCCC3)c3c2Sc2ccccc2S3)oc(N2CCOCC2)c1` [Compound 148], for which the IC50 was less than 200 nM.
Then `C[C@@H]1CN(CCC(=O)Nc2ccc3c(c2)Sc2cccc(-c4cc(=O)cc(N5CCOCC5)o4)c2S3)C[C@H](C)O1` [Compound 109], with less than 200 nM.
Take `O=c1cc(-c2cccc3c2Sc2ccccc2N3CCCNc2nc(-c3ccccc3)ns2)oc(N2CCOCC2)c1` [Compound 330]: the IC50 is less than 200 nM.
`CCN1CCN(CCC(=O)Nc2ccc3c(c2)Sc2cccc(-c4cc(=O)cc(N5CCOCC5)o4)c2S3)CC1` [Compound 119]: the IC50 is less than 200 nM.
On to `O=C(COc1ccc2c(c1)Sc1cccc(-c3cc(=O)cc(N4CCOCC4)o3)c1S2)Nc1cccnc1` [Compound 419], for which the IC50 was less than 200 nM.
Then `O=C(Nc1ccc2c(c1)Sc1cccc(-c3cc(=O)cc(N4CCOCC4)o3)c1S2)c1ccco1` [Compound 29], with less than 200 nM.

These data come from US7429660B2, “ATM inhibitors” (Kudos Pharmaceuticals Limited, priority 2003, dated 2008).
